Among the data in patent US9067934B2, “Bicyclic pyridinones” (Pfizer Inc., priority 2011, dated 2015) are IC50 values, retold here.

pIC50: −log10 of the molar value. Counter-ions that a name gives are not always drawn.

The first test concerns production of amyloid beta protein Aβ(1-42) (γ-secretase) in human WT-APP overexpressing CHO cells. The experiment in a line: Cell-Based γ-Secretase Assay with ELISA Readout. The note with it: CHO, 24 h, read-out: Aβ 42B IC50 (Geometric Mean of 2-6 Determinations). A digest of the protocol:
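Human WT-APP-overexpressing CHO cells were pre-cultured 24 h at 37° C, then exposed to compounds (eleven-point half-log series, 1% final DMSO) for ~24 h. Aβ(1-42) in conditioned media was captured with Aβ(1-42)-specific antibody and detected with Eu-labeled 6e10 by DELFIA TRF. IC50 by nonlinear regression against min/max inhibition controls.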
(In general: An ELISA detects its analyte on a solid surface through an enzyme-linked reagent.)
A word on the pIC50: it is the negative decadic logarithm of the IC50, by convention in mol/L. As to `Cc1cn(-c2ccc3n(c2=O)CCN(CCOc2ccccc2[Si](C)(C)C)C3=O)cn1` [Example 121, 7-(4-methyl-1H-imidazol-1-yl)-2-{2-[2-(trimethylsilyl)phenoxy]ethyl}-3,4-dihydro-2H-pyrido[1,2-a]pyrazine-1,6-dione], the pIC50 is 7.52.

The test is the same for the next values; noted with them: human WT-APP overexpressing CHO cells, ~24 hours at 37° C., Aβ(1-42) ELISA; footnotes: a = geometric mean of >15 determinations, b = single determination, c = geometric mean of 7-15 determinations; read-out: Aβ 42B IC50 (Geometric Mean of 2-6 Determinations).
Consider `Cc1cn(-c2ccc3n(c2=O)CCN(CCOc2cccc4c2OC(F)(F)O4)C3=O)cn1` [Example 109, 2-{2-[(2,2-difluoro-1,3-benzodioxol-4-yl)oxy]ethyl}-7-(4-methyl-1H-imidazol-1-yl)-3,4-dihydro-2H-pyrido[1,2-a]pyrazine-1,6-dione], for which the pIC50 was 6.56.

For the molecule `Cc1cn(-c2ccc3n(c2=O)CCN(CCOc2ccc(Cl)cc2C24CC(C2)C4)C3=O)cn1` [Example 110, 2-{2-[2-(bicyclo[1.1.1]pent-1-yl)-4-chlorophenoxy]ethyl}-7-(4-methyl-1H-imidazol-1-yl)-3,4-dihydro-2H-pyrido[1,2-a]pyrazine-1,6-dione], the pIC50 is 7.84.

As to `Cc1cn(-c2ccc3n(c2=O)CCCN(CCOc2ccc(Cl)cc2C(F)(F)F)C3=O)cn1` [Example 111, 2-{2-[4-chloro-2-(trifluoromethyl)phenoxy]ethyl}-8-(4-methyl-1H-imidazol-1-yl)-2,3,4,5-tetrahydropyrido[1,2-a][1,4]diazepine-1,7-dione], the pIC50 was 6.86.

Turning to `Cc1cn(-c2ccc3n(c2=O)[C@@H](C)CN(CCOc2ccc(F)cc2C(F)(F)F)C3=O)cn1` [Example 112, (4S)-2-{2-[4-fluoro-2-(trifluoromethyl)phenoxy]ethyl}-4-methyl-7-(4-methyl-1H-imidazol-1-yl)-3,4-dihydro-2H-pyrido[1,2-a]pyrazine-1,6-dione], the negative-log IC50 (pIC50) is 6.47. On to `O=C1c2ccc(-n3cnc(Cl)c3)c(=O)n2CCN1CCOc1ccc(Cl)cc1C(F)(F)F` [Example 113, 7-(4-chloro-1H-imidazol-1-yl)-2-{2-[4-chloro-2-(trifluoromethyl)phenoxy]ethyl}-3,4-dihydro-2H-pyrido[1,2-a]pyrazine-1,6-dione], for which the pIC50 was 6.53.

`O=C1c2ccc(-n3cnc(Cl)c3)c(=O)n2CCN1CCOc1ccccc1C(F)(F)F` [Example 114, 7-(4-chloro-1H-imidazol-1-yl)-2-{2-[2-(trifluoromethyl)phenoxy]ethyl}-3,4-dihydro-2H-pyrido[1,2-a]pyrazine-1,6-dione]: the pIC50 was 5.88.

As to `Cc1cc(-c2ccc3n(c2=O)CCN(CCOc2cccc4ccc(F)cc24)C3=O)ccn1` [Example 115, 2-{2-[(7-fluoronaphthalen-1-yl)oxy]ethyl}-7-(2-methylpyridin-4-yl)-3,4-dihydro-2H-pyrido[1,2-a]pyrazine-1,6-dione], the pIC50 was 6.31. Turning to `Cc1cc(-c2ccc3n(c2=O)CCN(CCOc2ccc(Cl)cc2C(F)(F)F)C3=O)ccn1` [Example 116, 2-{2-[4-chloro-2-(trifluoromethyl)phenoxy]ethyl}-7-(2-methylpyridin-4-yl)-3,4-dihydro-2H-pyrido[1,2-a]pyrazine-1,6-dione], the pIC50 is 5.46. The same measure, in the same setting: the same measure for `Cc1cn(-c2ccc3n(c2=O)CCN([C@@H](C)COc2ccc(Cl)cc2C(C)(C)C(F)(F)F)C3=O)cn1` [Example 117, 2-{(2S)-1-[4-Chloro-2-(1,1,1-trifluoro-2-methylpropan-2-yl)phenoxy]propan-2-yl}-7-(4-methyl-1H-imidazol-1-yl)-3,4-dihydro-2H-pyrido[1,2-a]pyrazine-1,6-dione]: 8.45; for `Cc1cn(-c2ccc3n(c2=O)CCN([C@@H](C)COc2ccc(F)cc2[C@@H](C)C(F)(F)F)C3=O)cn1` [Example 118, 2-[(2S)-1-{4-Fluoro-2-[(2R)-1,1,1-trifluoropropan-2-yl]phenoxy}propan-2-yl]-7-(4-methyl-1H-imidazol-1-yl)-3,4-dihydro-2H-pyrido[1,2-a]pyrazine-1,6-dione]: more than 8.18; for `Cc1cn(-c2ccc3n(c2=O)CCN([C@@H](C)COc2ccc(Cl)cc2S(F)(F)(F)(F)F)C3=O)cn1` [Example 119, 2-{(2S)-1-[4-Chloro-2-(pentafluoro-λ^6-sulfanyl)phenoxy]propan-2-yl}-7-(4-methyl-1H-imidazol-1-yl)-3,4-dihydro-2H-pyrido[1,2-a]pyrazine-1,6-dione]: 8.13. As to `Cc1cn(-c2ccc3n(c2=O)CCN([C@@H](C)COc2ccccc2S(F)(F)(F)(F)F)C3=O)cn1` [Example 120, 7-(4-methyl-1H-imidazol-1-yl)-2-{(2S)-1-[2-(pentafluoro-λ^6-sulfanyl)phenoxy]propan-2-yl}-3,4-dihydro-2H-pyrido[1,2-a]pyrazine-1,6-dione], the negative logarithm of the IC50 (pIC50) is 7.75. As for `Cc1cn(-c2ccc3n(c2=O)CCN(CCOc2ccc(F)cc2C2(C(F)(F)F)CCO2)C3=O)cn1` (stereo not drawn) [Example 122, 2-(2-{4-fluoro-2-[2-(trifluoromethyl)oxetan-2-yl]phenoxy}ethyl)-7-(4-methyl-1H-imidazol-1-yl)-3,4-dihydro-2H-pyrido[1,2-a]pyrazine-1,6-dione, trifluoroacetate salt], the pIC50 is 7.07.

Turning to `Cc1cn(-c2ccc3n(c2=O)CCN(C(C)C(C)Oc2ccccc2S(F)(F)(F)(F)F)C3=O)cn1` (stereo not drawn) [Example 123, 7-(4-methyl-1H-imidazol-1-yl)-2-{3-[2-(pentafluoro-λ^6-sulfanyl)phenoxy]butan-2-yl}-3,4-dihydro-2H-pyrido[1,2-a]pyrazine-1,6-dione], the pIC50 was 6.97.
